Experimental findings from ChEMBL document CHEMBL1125053, “Dihydropyrimidine calcium channel blockers. 2. 3-substituted-4-aryl-1,4-dihydro-6-methyl-5-pyrimidinecarboxylic acid esters as potent mimics of dihydropyridines” (J Med Chem, 1990) are described below.

SMILES strings stand for the structures.

Usually IC50 stands for the concentration needed to halve the response being measured.

In the assay the target is Voltage-gated L-type calcium channel (Homo sapiens, UniProt Q13936+Q13698+Q01668+O60840). Description: In vitro vasorelaxant activity (calcium channel blocking activity) was determined with potassium-depolarized rabbit thoracic aorta. The assay is classed as functional, tissue-based.
Consider `CCOC(=O)N1C(=S)N=C(C)/C(=C(/O)OC(C)C)[C@H]1c1cccc([N+](=O)[O-])c1`, for which the IC50 is 2 nM.

For `CCCN1C(S)=NC(C)=C(C(=O)OCC)C1c1cccc([N+](=O)[O-])c1` (centres undefined), the IC50 is on record as 50 nM.

In the case of `CCOC(=O)C1=C(C)NC(OCC)=C(C(=O)OCC)C1c1cccc([N+](=O)[O-])c1` (centres undefined), the IC50 came to 26 nM.

On to `CCOC(=O)C1=C(C)NC(SCC)=C(C(=O)OCC)C1c1cccc([N+](=O)[O-])c1` (centres undefined), for which the IC50 is recorded as 4 nM.

As for `CCOC(=O)C1=C(C)NC(SC)=NC1c1cccc([N+](=O)[O-])c1` (centres undefined), the half-maximal inhibitory concentration (IC50) was determined as 130 nM.

On to `CCOC(=O)N1C(=S)N=C(C)/C(=C(/O)OCC)C1c1cccc([N+](=O)[O-])c1` (centres undefined), for which the IC50 is 17 nM.

With `CCOC(=O)N1C(=S)N=C(C)/C(=C(/O)OCC)C1c1ccccc1C(F)(F)F` (centres undefined), the IC50 is recorded as 26 nM.

Turning to `CCOC(=O)C1=C(C)N=C(OC)NC1c1cccc([N+](=O)[O-])c1` (centres undefined), the IC50 is recorded as 710 nM.

Regarding `CCO/C(O)=C1\C(C)=NC(=S)N(C(=O)N(C)C)C1c1cccc([N+](=O)[O-])c1` (centres undefined), the IC50 amounted to 270 nM.
